Measured values as given in US9822069B2, “Urea derivative or pharmacologically acceptable salt thereof” (KYORIN PHARMACEUTICAL CO. LTD., priority 2013, dated 2017).

Biological target: T1, human FPRL1 (Homo sapiens, UniProt P25090)
T1 construct: expressed in transfected cells; host or cells: HEK293 (JCRB9068, NIBIO), transient transfection with pCMV-script vectors using Lipofectamine 2000
T1 sequence (P25090 1-351): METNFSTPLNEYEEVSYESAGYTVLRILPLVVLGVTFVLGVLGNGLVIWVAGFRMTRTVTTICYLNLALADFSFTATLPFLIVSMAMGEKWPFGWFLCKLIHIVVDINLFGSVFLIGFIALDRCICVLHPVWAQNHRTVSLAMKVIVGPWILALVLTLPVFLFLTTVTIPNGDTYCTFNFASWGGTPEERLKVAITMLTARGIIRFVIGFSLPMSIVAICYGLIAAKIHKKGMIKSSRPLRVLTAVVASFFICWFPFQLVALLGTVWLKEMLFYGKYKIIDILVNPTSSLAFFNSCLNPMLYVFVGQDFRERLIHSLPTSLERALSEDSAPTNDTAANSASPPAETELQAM
Assay: Measurement test of agonist activity on human FPRL1 (test of calcium mobilization in cell, HEK293 with human FPRL1 and Gα15 expression vectors)
Type: cell-based
Details: calcium mobilization in HEK293 cells with human FPRL1 and Gα15 expression vectors
Procedure, shortened: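 HEK293 transiently co-transfected with human FPRL1 and Gα15, plated 24 h before assay, loaded with Fluo-4 NW dye plus probenecid. Compounds in eight 10-fold dilutions (DMSO stocks 10^−2 to 10^−9 M, then diluted 100-fold in assay buffer); calcium mobilization read on Flexstation for EC50.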

Row | SMILES | EC50 [nM]
1 | COc1ccc([C@@H]2CN(C)C(=O)[C@H]2NC(=O)Nc2ccc(Cl)cc2)cc1 (single isomer, unassigned) [EXAMPLE 1-6, (−)-1-(4-chlorophenyl)-3-[(3S*,4R*)-4-(4-methoxyphenyl)-1-methyl-2-oxopyrrolidin-3-yl]urea] | 0.2
2 | O=C(Nc1ccc(F)cc1)N[C@@H]1C(=O)NC[C@H]1c1c(F)cc(OC(F)F)cc1F (relative stereo) [Example 1-74, 1-{(3S*,4R*)-4-[4-(difluoromethoxy)-2,6-difluorophenyl]-2-oxopyrrolidin-3-yl}-3-(4-fluorophenyl)urea] | 1.8
3 | COc1cc(F)c([C@@H]2CNC(=O)[C@H]2NC(=O)Nc2ccc(Oc3ccccc3)cc2)c(F)c1 (relative stereo) [Example 7-7, (−)-1-[(3S*,4R*)-4-(2,6-difluoro-4-methoxyphenyl)-2-oxopyrrolidin-3-yl]-3-(4-phenoxyphenyl)urea] | 1.56
4 | COc1ccc([C@@H]2CN/C(=N\O)[C@H]2NC(=O)Nc2ccc(F)cc2)cc1 (single isomer, unassigned) [EXAMPLE 33-1, (−)-1-(4-Fluorophenyl)-3-[(3S*,4R*,Z)-2-(2-hydroxyimino)-4-(4-methoxyphenyl)pyrrolidin-3-yl]urea] | 1.14
5 | COc1ccc([C@H]2[C@H](NC(=O)Nc3ccc(F)cc3)C(=O)N[C@@H]2C)cc1 (relative stereo) [Example 1-41, (−)-1-(4-fluorophenyl)-3-[(3S*,4R*,5R*)-4-(4-methoxyphenyl)-5-methyl-2-oxopyrrolidin-3-yl]urea] | 0.73
6 | CCOC(=O)C(C)(C)N1C[C@@H](c2cc3c(cc2F)OCC3)[C@H](NC(=O)Nc2ccc(F)cc2)C1=O (single isomer, unassigned) [EXAMPLE 24-21, (−)-2-{(3S*,4R*)-4-(6-fluoro-2,3-dihydrobenzofuran-5-yl)-3-[3-(4-fluorophenyl)ureido]-2-oxopyrrolidin-1-yl}-2-methylpropanoic acid ethyl ester] | 0.45
7 | COc1cc(F)c([C@@H]2CN=C(Nc3ccn(C)n3)[C@H]2NC(=O)Nc2ccc(F)cc2)c(F)c1 (single isomer, unassigned) [EXAMPLE 32-16, (−)-1-{(3R*,4S*)-3-(2,6-difluoro-4-methoxyphenyl)-5-[(1-methyl-1H-pyrazol-3-yl)amino]-3,4-dihydro-2H-pyrrol-4-yl}-3-(4-fluorophenyl)urea] | 0.54
8 | O=C(O)CN1C[C@@H](c2cc3c(cc2F)OCC3)[C@H](NC(=O)Nc2ccc(F)cc2)C1=O (relative stereo) [Example 16-3, (−)-2-{(3S*,4R*)-4-(6-fluoro-2,3-dihydrobenzofuran-5-yl)-3-[3-(4-fluorophenyl)ureido]-2-oxopyrrolidin-1-yl}acetic acid] | 0.75
9 | COc1ccc([C@@H]2CNC(=O)[C@H]2NC(=O)Nc2ccc(F)c(F)c2)cc1 (single isomer, unassigned) [EXAMPLE 1-3, (-)-1-(3,4-difluorophenyl)-3-[(3S*,4R*)-4-(4-methoxyphenyl)-2-oxopyrrolidin-3-yl]urea] | 2.57
10 | COc1ccc([C@@H]2CN/C(=N\OCCO)[C@H]2NC(=O)Nc2ccc(F)cc2)cc1 (single isomer, unassigned) [EXAMPLE 32-4, (−)-1-(4-fluorophenyl)-3-{(3S*,4R*,Z)-2-[(2-hydroxyethoxy)imino]-4-(4-methoxyphenyl)pyrrolidin-3-yl}urea] | 0.17
11 | COc1cc(F)c([C@@H]2CN(CC(=O)O)C(=O)[C@H]2NC(=O)Nc2ccc(F)cc2)c(F)c1 (relative stereo) [Example 16-2, (−)-2-{(3S*,4R*)-4-(2,6-difluoro-4-methoxyphenyl)-3-[3-(4-fluorophenyl)ureido]-2-oxopyrrolidin-1-yl}acetic acid] | 0.49
12 | COc1cc(F)c([C@@H]2CN(Cc3ccccc3)C(=O)[C@H]2NC(=O)Nc2ccc(F)cc2)c(F)c1 (relative stereo) [Example 24-12, (−)-1-[(3S*,4R*)-1-benzyl-4-(2,6-difluoro-4-methoxyphenyl)-2-oxopyrrolidin-3-yl]-3-(4-fluorophenyl)urea] | 2.2
13 | Cc1nnc(CN2C[C@@H](c3cc4c(cc3F)OCC4)[C@H](NC(=O)Nc3ccc(F)cc3)C2=O)o1 (single isomer, unassigned) [EXAMPLE 24-24, (−)-1-{(3S*,4R*)-4-(6-fluoro-2,3-dihydrobenzofuran-5-yl)-1-[(5-methyl-1,3,4-oxadiazol-2-yl)methyl]-2-oxopyrrolidin-3-yl}-3-(4-fluorophenyl)urea] | 0.46
14 | COc1cc(F)c([C@@H]2CN(CCO)C(=O)[C@H]2NC(=O)Nc2ccc(Cl)nc2)c(F)c1 (relative stereo) [Example 24-9, (−)-1-(6-chloropyridin-3-yl)-3-[(3S*,4R*)-4-(2,6-difluoro-4-methoxyphenyl)-1-(2-hydroxyethyl)-2-oxopyrrolidin-3-yl]urea] | 0.88
15 | COc1cc(F)c([C@@H]2CNC(=O)[C@H]2NC(=O)Nc2cccc(O)c2)c(F)c1 (relative stereo) [Example 1-57, 1-[(3S*,4R*)-4-(2,6-difluoro-4-methoxyphenyl)-2-oxopyrrolidine-3-yl]-3-(3-hydroxyphenyl)urea] | 0.16
16 | COc1cc(F)c([C@@H]2CNC(=O)[C@H]2NC(=O)Nc2ccc(C(F)(F)F)cc2)c(F)c1 (relative stereo) [Example 1-63, (−)-1-[(3S*,4R*)-4-(2,6-difluoro-4-methoxyphenyl)-2-oxopyrrolidin-3-yl]-3-[4-(trifluoromethyl)phenyl]urea] | 0.92

Further compounds by falling EC50, results first:

Row | EC50 [nM] | SMILES
17 | 2.31 | CCc1ccc(NC(=O)N[C@@H]2C(=O)NC[C@H]2c2c(F)cc(OC)cc2F)cc1 (relative stereo) [Example 7-10, (−)-1-[(3S*,4R*)-4-(2,6-difluoro-4-methoxyphenyl)-2-oxopyrrolidin-3-yl]-3-(4-ethylphenyl)urea]
18 | 1.91 | COc1cc(F)c([C@@H]2CNC(=O)[C@H]2NC(=O)Nc2ncc(Cl)s2)c(F)c1 (relative stereo) [Example 1-26, (−)-1-(5-chlorothiazol-2-yl)-3-[(3S*,4R*)-4-(2,6-difluoro-4-methoxyphenyl)-2-oxopyrrolidin-3-yl]urea]
19 | 0.95 | COc1cc(F)c([C@@H]2CNC(=O)[C@H]2NC(=O)Nc2cccc(F)c2)c(F)c1 (relative stereo) [Example 7-8, (−)-1-[(3S*,4R*)-4-(2,6-difluoro-4-methoxyphenyl)-2-oxopyrrolidin-3-yl]-3-(3-fluorophenyl)urea]
20 | 0.81 | COc1cc(F)c([C@@H]2CN(C)C(=O)[C@H]2NC(=O)Nc2ccc(Cl)nc2)c(F)c1 (relative stereo) [Example 24-4, (−)-1-(6-chloropyridin-3-yl)-3-[(3S*,4R*)-4-(2,6-difluoro-4-methoxyphenyl)-1-methyl-2-oxopyrrolidin-3-yl]urea]
21 | 0.69 | O=C(Nc1ccc(F)cc1)N[C@@H]1C(=O)NC[C@H]1c1c(F)cc2c(c1F)CCO2 (relative stereo) [Example 1-80, 1-[(3S*,4R*)-4-(4,6-difluoro-2,3-dihydrobenzofuran-5-yl)-2-oxopyrrolidin-3-yl]-3-(4-fluorophenyl)urea]
22 | 0.54 | COc1cc(F)c([C@@H]2CN=C(Nc3ccccc3)[C@H]2NC(=O)Nc2ccc(F)cc2)c(F)c1 (relative stereo) [EXAMPLE 32-18, 1-[(3R*,4S*)-3-(2,6-difluoro-4-methoxyphenyl)-5-(phenylamino)-3,4-dihydro-2H-pyrrol-4-yl]-3-(4-fluorophenyl)urea]
23 | 0.3 | CO/N=C1\NC[C@@H](c2c(F)cc(OC)cc2F)[C@@H]1NC(=O)Nc1ccc(C#N)cc1 (single isomer, unassigned) [EXAMPLE 32-9, (−)-1-(4-cyanphenyl)-3-[(3S*,4R*,Z)-4-(2,6-difluoro-4-methoxyphenyl)-2-(methoxyimino)pyrrolidin-3-yl]urea]
24 | 0.29 | NC(=O)CN1C[C@@H](c2cc3c(cc2F)OCC3)[C@H](NC(=O)Nc2ccc(F)cc2)C1=O (relative stereo) [Example 17-3, (−)-2-{(3S*,4R*)-4-(6-fluoro-2,3-dihydrobenzofuran-5-yl)-3-[3-(4-fluorophenyl)ureido]-2-oxopyrrolidin-1-yl}acetamide]
25 | 0.16 | COc1cc(F)c([C@@H]2CNC(=O)[C@H]2NC(=O)Nc2ccc(F)c(F)c2)c(F)c1 (relative stereo) [Example 7-9, (−)-1-[(3S*,4R*)-4-(2,6-difluoro-4-methoxyphenyl)-2-oxopyrrolidin-3-yl]-3-(3,4-difluorophenyl)urea]
26 | 0.15 | CCOC(=O)CN1C[C@@H](c2cc3c(cc2F)OCC3)[C@H](NC(=O)Nc2ccc(F)cc2)C1=O (single isomer, unassigned) [EXAMPLE 24-20, (−)-2-{(3S*,4R*)-4-(6-fluoro-2,3-dihydrobenzofuran-5-yl)-3-[3-(4-fluorophenyl)ureido]-2-oxopyrrolidin-1-yl}acetic acid ethyl ester]
27 | 0.1 | COc1cc(F)c([C@@H]2CN(OC)C(=O)[C@H]2NC(=O)Nc2ccc(F)cc2)c(F)c1 (single isomer, unassigned) [EXAMPLE 27-2, (−)-1-[(3S*,4R*)-4-(2,6-Difluoro-4-methoxyphenyl)-1-methoxy-2-oxopyrrolidin-3-yl]-3-(4-fluorophenyl)urea]
28 | 0.09 | COc1cc(F)c([C@@H]2CN(C)C(=O)[C@H]2NC(=O)Nc2ccc(F)cc2)c(F)c1 (relative stereo) [Example 24-1, (−)-1-[(3S*,4R*)-4-(2,6-Difluoro-4-methoxyphenyl)-1-methyl-2-oxopyrrolidin-3-yl]-3-(4-fluorophenyl)urea]
